Measured values taken from the NIST ThermoML archive (doi:10.1016/j.jct.2016.12.034).
Numbers after ± are expanded uncertainties.

Details: Crystal; for vapor or sublimation pressure: Transpiration method

CC(=O)Nc1ccc(/C=N/NC(N)=S)cc1 [Thioacetazone]
Details	Normal melting temperature [°C]	vapor or sublimation pressure [kPa]
404.15 K	–	1.89e-05 ± 2.1e-06
406.15 K	–	2.23e-05 ± 2.5e-06
408.15 K	–	2.81e-05 ± 3.2e-06
410.15 K	–	3.67e-05 ± 4.1e-06
412.15 K	–	4.46e-05 ± 5e-06
415.15 K	–	6.04e-05 ± 6.6e-06
417.15 K	–	7.03e-05 ± 8.1e-06
420.15 K	–	0.0001125 ± 1.3e-05
423.15 K	–	0.0001414 ± 1.5e-05
425.15 K	–	0.0001651 ± 1.9e-05
427.15 K	–	0.0002376 ± 2.7e-05
429.15 K	–	0.0002851 ± 3.1e-05
DTA	229.00 ± 0.5	–
